# Experimental data taken from ChEMBL document CHEMBL1201862, “PubChem BioAssay data set” (2004).
#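 All cell lines were grown in 96-well plates and treated with compound for 48 hours. GI50 is the concentration that inhibits growth by half.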 Active and inactive are the calls of the source. No stated cut-off is given here; in the data, active = GI50 up to about 1.1 µM and inactive = higher.
# Columns and labels:
# Assay in all cases: growth of human tumour cells (NCI), 48 h
# [1] = system: 786-0
# [2] = system: A498
# [3] = system: HCC 2998
# [4] = system: HL-60
# [5] = system: HOP-62
# [6] = system: Hs-578T
# [7] = system: KM12
# [8] = system: LOX IMVI
# [9] = system: MCF7
# [10] = system: MOLT-4
# [11] = system: Malme-3M
# [12] = system: NCI/ADR-RES
# [13] = system: OVCAR-4
# [14] = system: SK-MEL-28
# [15] = system: SK-MEL-5
# [16] = system: T47D
# [17] = system: U-251
# [18] = system: UO-31
# [19] = system: MDA-N
SMILES,GI50 [1],GI50 [2],GI50 [3],GI50 [4],GI50 [5],GI50 [6],GI50 [7],GI50 [8],GI50 [9],GI50 [10],GI50 [11],GI50 [12],GI50 [13],GI50 [14],GI50 [15],GI50 [16],GI50 [17],GI50 [18],GI50 [19]
CC1(C)S[C@@H]2[C@H](N3C(=O)c4ccccc4C3=O)CN2[C@H]1NC(=O)N[C@@H]1N2C[C@@H](N3C(=O)c4ccccc4C3=O)[C@H]2SC1(C)C,54.5 µM (inactive),> 100 µM (inactive),> 100 µM (inactive),> 100 µM (inactive),48.8 µM (inactive),> 100 µM (inactive),> 100 µM (inactive),> 100 µM (inactive),> 100 µM (inactive),> 100 µM (inactive),> 100 µM (inactive),> 100 µM (inactive),> 100 µM (inactive),> 100 µM (inactive),> 100 µM (inactive),> 100 µM (inactive),27 µM (inactive),> 100 µM (inactive),
CN(C)CCNC(=O)c1cccc2c(NC(CCCNC(=N)N)C(=O)O)c3ccccc3nc12 (stereo unspecified),7.52 µM (inactive),19.8 µM (inactive),,> 100 µM (inactive),9.73 µM (inactive),11.4 µM (inactive),7.26 µM (inactive),3.85 µM (inactive),5.27 µM (inactive),3.89 µM (inactive),3.86 µM (inactive),3.75 µM (inactive),5.09 µM (inactive),25.7 µM (inactive),6.05 µM (inactive),,14.3 µM (inactive),2.82 µM (inactive),14 µM (inactive)
CC(=O)c1cc(C)n2c1CS[C@@H]2c1ccccc1,19.7 µM (inactive),> 100 µM (inactive),,34 µM (inactive),83.9 µM (inactive),> 100 µM (inactive),54.6 µM (inactive),26.3 µM (inactive),35.9 µM (inactive),25.2 µM (inactive),> 100 µM (inactive),50.1 µM (inactive),59.7 µM (inactive),> 100 µM (inactive),32.2 µM (inactive),35.6 µM (inactive),28.4 µM (inactive),64.3 µM (inactive),
CC1(CCCCO)C=CC(S(=O)(=O)c2ccccc2)CC1 (stereo unspecified),3.96 µM (inactive),8.59 µM (inactive),5.9 µM (inactive),,2.64 µM (inactive),,1.86 µM (inactive),1.78 µM (inactive),3.15 µM (inactive),3.15 µM (inactive),0.581 µM (active),2.59 µM (inactive),8.67 µM (inactive),14.9 µM (inactive),4.27 µM (inactive),,6.95 µM (inactive),4.16 µM (inactive),3.42 µM (inactive)
CCC1(O)C(=O)OCc2c1cc1n(c2=O)Cc2cc3cc(OC)c(OC)cc3nc2-1 (stereo unspecified),6.28 µM (inactive),28.1 µM (inactive),36.7 µM (inactive),12 µM (inactive),2.79 µM (inactive),,> 100 µM (inactive),7.19 µM (inactive),,4.85 µM (inactive),> 100 µM (inactive),,> 100 µM (inactive),> 100 µM (inactive),17.5 µM (inactive),,6.52 µM (inactive),32 µM (inactive),
COc1ccc2nccc(SCC(=O)O)c2c1,> 100 µM (inactive),> 100 µM (inactive),,> 100 µM (inactive),> 100 µM (inactive),> 100 µM (inactive),> 100 µM (inactive),> 100 µM (inactive),,> 100 µM (inactive),,> 100 µM (inactive),> 100 µM (inactive),> 100 µM (inactive),> 100 µM (inactive),> 100 µM (inactive),> 100 µM (inactive),> 100 µM (inactive),> 100 µM (inactive)
CCOC(=O)CSc1[nH]c2nc(C)nc(Cl)c2c1C#N,> 10 µM (inactive),,> 10 µM (inactive),> 10 µM (inactive),> 10 µM (inactive),,> 10 µM (inactive),> 10 µM (inactive),> 10 µM (inactive),> 10 µM (inactive),> 10 µM (inactive),,> 10 µM (inactive),> 10 µM (inactive),> 10 µM (inactive),> 10 µM (inactive),,,> 10 µM (inactive)
NC(=S)NS(=O)(=O)c1ccc(F)cc1,> 100 µM (inactive),,> 100 µM (inactive),> 100 µM (inactive),> 100 µM (inactive),> 100 µM (inactive),> 100 µM (inactive),> 100 µM (inactive),,> 100 µM (inactive),> 100 µM (inactive),> 100 µM (inactive),> 100 µM (inactive),> 100 µM (inactive),> 100 µM (inactive),> 100 µM (inactive),> 100 µM (inactive),,> 100 µM (inactive)
COc1cc(/C=C2/SC(c3ccccc3)N(c3cc(Cl)ccc3Cl)C2=O)cc(OC)c1OC (stereo unspecified),> 100 µM (inactive),> 100 µM (inactive),> 100 µM (inactive),51.9 µM (inactive),> 100 µM (inactive),,35.7 µM (inactive),67.6 µM (inactive),30.8 µM (inactive),> 100 µM (inactive),62.8 µM (inactive),64.4 µM (inactive),49.8 µM (inactive),87.7 µM (inactive),59.7 µM (inactive),30.1 µM (inactive),63.4 µM (inactive),75.3 µM (inactive),19.1 µM (inactive)
O=C(O)Cc1ccc(Oc2nc3ccccc3nc2C(=O)O)cc1,> 100 µM (inactive),> 100 µM (inactive),> 100 µM (inactive),0.0305 µM (active),> 100 µM (inactive),> 100 µM (inactive),> 100 µM (inactive),> 100 µM (inactive),> 100 µM (inactive),,,> 100 µM (inactive),> 100 µM (inactive),> 100 µM (inactive),> 100 µM (inactive),> 100 µM (inactive),> 100 µM (inactive),> 100 µM (inactive),
CC/C(C)=C1\OC(=O)C(C)C(O)C(Cc2cccnc2)NC(=O)C(NC(=O)c2ncccc2O)C(C)OC1=O (stereo unspecified),> 100 µM (inactive),> 100 µM (inactive),> 100 µM (inactive),62.8 µM (inactive),51.1 µM (inactive),29.7 µM (inactive),42 µM (inactive),> 100 µM (inactive),> 100 µM (inactive),53.6 µM (inactive),39.5 µM (inactive),,> 100 µM (inactive),> 100 µM (inactive),> 100 µM (inactive),> 100 µM (inactive),> 100 µM (inactive),,> 100 µM (inactive)
Cc1ccc2c(c1)NC(c1ccc(C(=O)O)cc1)c1cccn1-2 (stereo unspecified),19.3 µM (inactive),22.9 µM (inactive),,,24 µM (inactive),,30.7 µM (inactive),> 100 µM (inactive),25.1 µM (inactive),64.1 µM (inactive),,,17.2 µM (inactive),> 100 µM (inactive),> 100 µM (inactive),13.7 µM (inactive),30.9 µM (inactive),,75.2 µM (inactive)
CC1C2=C(O)CC(C)(C)CC2=NC2=C1C(=O)CC(C)(C)C2 (stereo unspecified),> 100 µM (inactive),> 100 µM (inactive),> 100 µM (inactive),> 100 µM (inactive),,> 100 µM (inactive),> 100 µM (inactive),> 100 µM (inactive),> 100 µM (inactive),> 100 µM (inactive),,> 100 µM (inactive),> 100 µM (inactive),> 100 µM (inactive),> 100 µM (inactive),,> 100 µM (inactive),> 100 µM (inactive),
COC1(CC[C@@H](C)COC2OC(CO)C(O)C(O)C2O)OC2C[C@H]3[C@@H]4CC[C@H]5C[C@@H](OC6OC(CO)C(OC7OC(CO)C(O)C(O)C7O)C(O)C6OC6OC(C)C(O)C(O)C6O)[C@H](O)C[C@]5(C)[C@H]4CC[C@]3(C)C2[C@@H]1C (stereo partly specified),2.02 µM (inactive),1.81 µM (inactive),1.7 µM (inactive),2.32 µM (inactive),1.89 µM (inactive),2.52 µM (inactive),2.12 µM (inactive),1.79 µM (inactive),2.88 µM (inactive),2.58 µM (inactive),1.85 µM (inactive),,1.97 µM (inactive),1.88 µM (inactive),1.79 µM (inactive),3.04 µM (inactive),1.87 µM (inactive),1.79 µM (inactive),2.19 µM (inactive)
O=C(/C=C/c1ccc2ccccc2c1)NCc1ccc(C(=O)NCc2ccccc2)cc1,67.9 µM (inactive),> 83.8 µM (inactive),> 37.2 µM (inactive),14.7 µM (inactive),14.2 µM (inactive),37.9 µM (inactive),> 100 µM (inactive),> 100 µM (inactive),> 83.6 µM (inactive),> 66.7 µM (inactive),> 35.8 µM (inactive),> 100 µM (inactive),8.53 µM (inactive),> 100 µM (inactive),98.9 µM (inactive),> 36.3 µM (inactive),> 60 µM (inactive),> 53.8 µM (inactive),
N#CC(C(=O)c1ccccc1F)c1nc2cc(C(F)(F)F)ccc2s1 (stereo unspecified),19.6 µM (inactive),14 µM (inactive),,,18.7 µM (inactive),,32.5 µM (inactive),17.6 µM (inactive),,31.1 µM (inactive),19.6 µM (inactive),19.7 µM (inactive),31.3 µM (inactive),29.4 µM (inactive),20.8 µM (inactive),25.9 µM (inactive),26.7 µM (inactive),,
